The text below walks through data of patent US9790229B2, “Bruton's tyrosine kinase inhibitors” (priority 2009, dated 2017).

Bounds are passed on as bounds.

The target in one test is BTK (Homo sapiens (Human), UniProt Q06187). Put plainly: In vitro BTK kinase assay: BTK-POLYGAT-LS ASSAY.
Chain of BTK (Q06187 whole entry): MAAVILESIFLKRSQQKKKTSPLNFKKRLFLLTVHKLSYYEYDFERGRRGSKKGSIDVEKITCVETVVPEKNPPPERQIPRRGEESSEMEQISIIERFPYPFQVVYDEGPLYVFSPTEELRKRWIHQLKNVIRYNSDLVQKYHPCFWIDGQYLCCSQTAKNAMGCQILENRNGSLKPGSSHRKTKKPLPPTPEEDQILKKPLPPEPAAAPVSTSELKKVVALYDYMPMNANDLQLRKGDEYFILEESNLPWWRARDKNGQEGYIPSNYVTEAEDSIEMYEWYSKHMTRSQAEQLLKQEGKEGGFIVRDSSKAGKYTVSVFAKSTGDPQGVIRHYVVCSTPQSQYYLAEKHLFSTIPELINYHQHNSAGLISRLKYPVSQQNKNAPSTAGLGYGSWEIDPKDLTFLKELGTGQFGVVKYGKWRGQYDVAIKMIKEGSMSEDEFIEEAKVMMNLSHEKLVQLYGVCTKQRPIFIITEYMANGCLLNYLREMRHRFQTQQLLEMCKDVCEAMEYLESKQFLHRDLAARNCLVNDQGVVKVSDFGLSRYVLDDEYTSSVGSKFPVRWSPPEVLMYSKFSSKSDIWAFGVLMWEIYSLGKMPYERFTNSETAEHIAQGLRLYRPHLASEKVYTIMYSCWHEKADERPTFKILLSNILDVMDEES
Conditions: not given
Regarding `Nc1ncnc(N2C[C@@H](O)C[C@@H](N3CCCC(Nc4cc(F)cc(Cl)c4)C3=O)C2)c1F` (stereo partly drawn) [compound 284, (3′R, 5′S)-1′-(6-Amino-5-fluoropyrimidin-4-yl)-3-(3-chloro-5-fluorophenylamino)-5′-hydroxy-1,3′-bipiperidin-2-one], the IC50 lay in the range of 100 to 999 nM. `O=C(Nc1cccc(C2CCCN(c3ncnc4[nH]ccc34)C2)c1)Nc1ccccc1OC(F)F` (stereo not shown) [compound 191] displayed a concentration for half-maximal inhibition (IC50) of 1000 to 10000 nM. The same measure, in the same setting: the value for `CC(C)(C)c1ccccc1NC(=O)Nc1cccc([C@@H]2CCCN(c3ncnc4[nH]ccc34)C2)c1` [compound 189] was 1000 to 10000 nM; that for `O=C(Nc1cccc(C2CCCN(c3ncnc4[nH]ccc34)C2)c1)Nc1ccccc1N1C[C@@H](O)[C@H](O)C1` (stereo partly shown) [compound 158] was 100 to 999 nM; that for `O=C(Nc1ccccc1)Nc1cccc(C2CCN(c3ncnc4[nH]ccc34)C2)c1` (stereo not shown) [Cmpd 28, 1-(3-(1-(7H-pyrrolo[2,3-d]pyrimidin-4-yl)pyrrolidin-3-yl)phenyl)-3-phenylurea] was 1000 to 10000 nM.

In the case of `O=C(Nc1cccc(C2CCCN(c3ncnc4[nH]ccc34)C2)c1)N[C@H](CO)C1CCCCC1` (stereo partly shown) [compound 203], the IC50 was in the range of 1000 to 10000 nM.

`CC(C)CCNC(=O)Nc1cccc(C2CCCN(c3ncnc4[nH]ccc34)C2)c1` (stereo not shown) [compound 186]: the IC50 was 1000 to 10000 nM.

`O=C(NC[C@H]1CCCC[C@@H]1O)Nc1cccc(C2CCCN(c3ncnc4[nH]ccc34)C2)c1` (stereo partly shown) [compound 199] displayed an IC50 of 1000 to 10000 nM. Same read-out and setting: the value for `O=C(Nc1cccc(C2CCCN(c3ncnc4[nH]ccc34)C2)c1)Nc1cccnc1Cl` (stereo not shown) [compound 202] was 1000 to 10000 nM; that for `CNc1ncnc(N2CCC[C@@H](N3CCCC(Nc4cc(F)cc(Cl)c4)C3=O)C2)c1F` (stereo partly drawn) [compound 286, (3′R)-3-(3-Chloro-5-fluorophenylamino)-1′-(5-fluoro-6-(methylamino)pyrimidin-4-yl)-1,3′-bipiperidin-2-one] was 1000 to 10000 nM. The molecule `Nc1ncnc(N2CCC[C@@H](N3CCCC(Nc4ccccc4C(=O)O)C3=O)C2)c1F` (stereo partly drawn) [compound 297, 2-((3′R)-1′-(6-Amino-5-fluoropyrimidin-4-yl)-2-oxo-1,3′-bipiperidin-3-ylamino)benzoic acid] displayed an IC50 of 1000 to 10000 nM. The same measure, in the same setting: the value for `O=C(Nc1cc(C2CCCN(c3ncnc4[nH]ccc34)C2)ccc1OC(F)(F)F)c1c(Cl)cccc1Cl` (stereo not shown) [Cmpd 88, N-(5-(1-(7H-pyrrolo[2,3-d]pyrimidin-4-yl)piperidin-3-yl)-2-(trifluoromethoxy)phenyl)-2,6-dichlorobenzamide] was 1000 to 10000 nM. `C[C@@H](NC(=O)Nc1cccc(C2CCCN(c3ncnc4[nH]ccc34)C2)c1)c1ccccc1` (stereo partly drawn) [Cmpd 43, 1-(3-(1-(7H-pyrrolo[2,3-d]pyrimidin-4-yl)piperidin-3-yl)phenyl)-3-((R)-1-phenylethyl)urea]: the IC50 was 1000 to 10000 nM. The molecule `N#CNc1cc(N2CCC[C@@H](N3CCCC(Nc4cc(F)cc(Cl)c4)C3=O)C2)ncn1` (stereo partly shown) [compound 358] yielded an IC50 of 100 to 999 nM. On the same count and under the same terms, the value for `C[C@@H](NC(=O)Nc1cccc(C2CCCN(c3ncnc4[nH]ccc34)C2)c1)C1CCCCC1` (stereo partly drawn) [Cmpd 44, 1-(3-(1-(7H-pyrrolo[2,3-d]pyrimidin-4-yl)piperidin-3-yl)phenyl)-3-((R)-1-cyclohexylethyl)urea] was 1000 to 10000 nM; that for `Nc1ncnc(N2CCCC(c3nc(NC(=O)Nc4c(F)cc(F)cc4N4CCCC4)cs3)C2)c1Cl` (stereo not shown) [compound 114, 1-(2-(1-(6-amino-5-chloropyrimidin-4-yl)piperidin-3-yl)thiazol-4-yl)-3-(2,4-difluoro-6-(pyrrolidin-1-yl)phenyl)urea] was 100 to 999 nM.

The test is the same for the next values; noted with them: read-out: IC50 (10 uM ATP); 10 uM ATP; in vitro Btk kinase assay, Example 41.
Consider `O=C(Nc1ccccc1)N[C@H]1CCN(C2CCCN(c3ncnc4[nH]ccc34)C2)C1` (stereo partly shown) [compound 256], for which the IC50 is > 10000 nM. As for `CN1CCCCC1CNC(=O)Nc1cccc(C2CCCN(c3ncnc4[nH]ccc34)C2)c1` (stereo not shown) [compound 228], the IC50 is > 10000 nM.

On to `O=C(Nc1cccc(C2CCCN(c3ncnc4[nH]ccc34)C2)c1)c1c(Cl)cccc1Cl` (stereo not shown) [Cmpd 10, N-(3-(1-(7H-pyrrolo[2,3-d]pyrimidin-4-yl)piperidin-3-yl)phenyl)-2,6-dichlorobenzamide], for which the IC50 is > 10000 nM. The same measure, in the same setting: next, `O=C(Nc1ccccc1)NC1CN(C2CCCN(c3ncnc4[nH]ccc34)C2)C1` (stereo not shown) [compound 234]: > 10000 nM; `Nc1ncnc(N2CCC[C@@H](N3CC=CC[C@@H](Nc4cc(F)cc(Cl)c4)C3=O)C2)c1F` [compound 347, (R,Z)-1-((R)-1-(6-amino-5-fluoropyrimidin-4-yl)piperidin-3-yl)-3-(3-chloro-5-fluorophenylamino)-3,4-dihydro-1H-azepin-2(7H)-one]: < 100 nM; `Nc1ncnc(N2CCC[C@@H](N3CCCC[C@@H](Nc4cc(F)cc(Cl)c4)C3=O)C2)c1F` [compound 346, (R)-1-((R)-1-(6-amino-5-fluoropyrimidin-4-yl)piperidin-3-yl)-3-(3-chloro-5-fluorophenylamino)azepan-2-one]: < 100 nM. On to `O=C(Nc1cccc(C2CCCN(c3ncnc4[nH]ccc34)C2)c1)Nc1ccccc1N1C[C@H](O)[C@@H](O)C1` (stereo partly shown) [compound 150], for which the IC50 was < 100 nM. As to `CS(=O)(=O)N1CCN(c2ncnc3[nH]ccc23)CC1c1cccc(NC(=O)Nc2ccccc2)c1` (stereo not shown) [compound 128, 1-(3-(1-(methylsulfonyl)-4-(7H-pyrrolo[2,3-d]pyrimidin-4-yl)piperazin-2-yl)phenyl)-3-phenylurea], the IC50 was > 10000 nM. As for `CO[C@H]1CCN(c2ccccc2NC(=O)Nc2cccc(C3CCCN(c4ncnc5[nH]ccc45)C3)c2)C1` (stereo partly shown) [compound 157], the IC50 is < 100 nM. As to `O=C(Nc1csc(C2CCCN(c3ncnc4[nH]ncc34)C2)n1)Nc1ccccc1N1CCCC1` (stereo not shown) [compound 110, 1-(2-(1-(1H-pyrazolo[3,4-d]pyrimidin-4-yl)piperidin-3-yl)thiazol-4-yl)-3-(2-(pyrrolidin-1-yl)phenyl)urea], the IC50 was < 100 nM.

As for `O=C(Nc1ccncc1)Nc1cccc(C2CCCN(c3ncnc4[nH]ccc34)C2)c1` (stereo not shown) [Cmpd 31, 1-(3-(1-(7H-pyrrolo[2,3-d]pyrimidin-4-yl)piperidin-3-yl)phenyl)-3-(pyridin-4-yl)urea], the IC50 was > 10000 nM. Turning to `C[C@H](NC(=O)Nc1cccc(C2CCCN(c3ncnc4[nH]ccc34)C2)c1)C1CCCCC1` (stereo partly shown) [compound 242], the IC50 is > 10000 nM. Regarding `Cc1nn(C)c(C)c1NC(=O)Nc1cccc(C2CCCN(c3ncnc4[nH]ccc34)C2)c1` (stereo not shown) [compound 244], the IC50 is > 10000 nM.

Regarding `O=C(NCC1CCCNC1)Nc1cccc(C2CCCN(c3ncnc4[nH]ccc34)C2)c1` (stereo not shown) [compound 229], the IC50 was > 10000 nM. With `CC(C)(C)c1ccccc1NC(=O)Nc1cccc([C@H]2CCCN(c3ncnc4[nH]ccc34)C2)c1` [compound 156], the IC50 is < 100 nM. Same read-out and setting: next, `O=C(Nc1cccc(C2CCCN(c3ncnc4[nH]ccc34)C2)c1)c1ccc[nH]1` (stereo not shown) [compound 14, N-(3-(1-(7H-pyrrolo[2,3-d]pyrimidin-4-yl)piperidin-3-yl)phenyl)-1H-pyrrole-2-carboxamide]: > 10000 nM. With `Nc1ncnc(N2CCC[C@@H](N3CCCC(Nc4ccccc4S(=O)(=O)C4CCCCC4)C3=O)C2)c1F` (stereo partly drawn) [compound 320, (3′R)-1′-(6-Amino-5-fluoropyrimidin-4-yl)-3-(2-(cyclohexylsulfonyl)phenylamino)-1,3′-bipiperidin-2-one], the IC50 was < 100 nM. For `O=C(NCC1CCS(=O)(=O)C1)Nc1cccc(C2CCCN(c3ncnc4[nH]ccc34)C2)c1` (stereo not shown) [compound 247], the IC50 is > 10000 nM.

What is called IC50 is the midpoint of a concentration-inhibition curve.
